In PMC8041284, “Tunable Methacrylamides for Covalent Ligand Directed Release Chemistry” (Journal of the American Chemical Society, 2021):
Where two headings read alike, the source gives them in different places.

Molecular target: BTK (Homo sapiens, UniProt Q06187)
Assay: biochemical
[1] = read-out: BTK inhibition (%), 0.75 uM BTK, […] probe 3l, 15 min preincubation

BTK, sequence (Q06187 402-655 limits assumed): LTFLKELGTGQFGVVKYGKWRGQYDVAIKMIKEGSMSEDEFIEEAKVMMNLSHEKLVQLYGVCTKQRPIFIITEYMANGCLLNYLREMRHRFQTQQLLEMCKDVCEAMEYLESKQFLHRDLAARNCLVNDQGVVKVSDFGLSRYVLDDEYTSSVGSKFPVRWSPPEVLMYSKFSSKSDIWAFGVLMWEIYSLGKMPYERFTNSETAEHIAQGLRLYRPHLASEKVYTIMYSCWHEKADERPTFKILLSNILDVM

O=C(O)c1ccc(-c2ccc(/C=C3\SC(=S)N(Cc4ccccc4)C3=O)o2)cc1 [PCM-0215715] gave an inhibition at 10 µM [1] of 11.6%.

With O=C1c2c(O)ccc(O)c2C(=O)c2c(NCCNCCO)ccc(NCCNCCO)c21 [PCM-0065547] the inhibition at 10 µM [1] was 51%.

CNC(=O)[C@H](Cc1c[nH]c2ccccc12)NC(=O)[C@@H](CC(=O)NO)CC(C)C [PCM-0095723] gave an inhibition at 10 µM [1] of 19.3%.

With C[C@]12N[C@H](Cc3ccccc31)c1ccccc12 [PCM-0064989] the inhibition at 10 µM (read-out: BTK inhibition (%)) was 3.9%.

For O=C(c1ccccc1)c1ccc2nc(NC(=O)c3csc(C4CCN(c5ncnc6ccsc56)CC4)n3)[nH]c2c1 [PCM-0095775], the inhibition at 10 µM [1] was 20.1%.

In the case of C/C=C(\C)C(=O)O [PCM-0215012], the inhibition at 10 µM [1] is reported as 15.6%.

With CC(C)(C)NC[C@H](O)COc1nsnc1N1CCOCC1 [PCM-0064983] the inhibition at 10 µM [1] was -3.9%.

O=C(Nc1ccccc1)N1CCN(c2nc(-c3ccccc3)ns2)CC1 [PCM-0010620] was tested, and the inhibition at 10 µM [1] was -3.9%.

Work on CCCc1cc(C(N)=S)ccn1 [PCM-0086237] yielded an inhibition at 10 µM [1] of -11.7%.

CCC(=O)OCC(=O)[C@@]1(OC(=O)CC)[C@@H](C)C[C@H]2[C@@H]3CCC4=CC(=O)C=C[C@]4(C)[C@@]3(F)[C@@H](O)C[C@@]21C [PCM-0095138] was tested, and the inhibition at 10 µM [1] was -9.3%.

With CCCCOCc1ccc(O)c(OC)c1 [PCM-0215915] the inhibition at 10 µM [1] was -15.6%.

NC(=O)c1cnc2[nH]ccc2c1NC1[C@@H]2CC3C[C@H]1CC(O)(C3)C2 (some centres unmarked) [PCM-0215550] was tested, and the inhibition at 10 µM [1] was 94.5%.

CC(C(=O)O)c1ccc2c(c1)CC(=O)c1ccccc1S2 (centres unmarked) [PCM-0095453] gave an inhibition at 10 µM [1] of -15.9%.

CCCN(CCC)CCc1cccc2c1CC(=O)N2 [PCM-0065591] was tested, and the inhibition at 10 µM [1] was -18.7%.

In the case of Cn1cc(-c2ccncc2)c(-c2ccc(OCc3ccc4ccccc4n3)cc2)n1 [PCM-0095695], the inhibition at 10 µM [1] is reported as -33.5%.

In the case of C=CC(=O)N1CCN(CCCn2c(=O)c(-c3c(Cl)c(OC)cc(OC)c3Cl)cc3cnc(NC)nc32)CC1 [PCM-0215863], the inhibition at 10 µM [1] is reported as 6.2%.

Compound Oc1ccc(-c2nc(-c3ccc(F)cc3)c(-c3ccncc3)[nH]2)cc1 [PCM-0064463] has an inhibition at 10 µM [1] of 18.6%.

In the case of CCOc1nc2cccc(C(=O)O)c2n1Cc1ccc(-c2ccccc2-c2noc(=O)[nH]2)cc1 [PCM-0095534], the inhibition at 10 µM [1] is reported as -3.1%.

With C[C@@H]1CCC=C2C(=O)C[C@H]3OOC(C)(C)[C@H]3[C@]21C [PCM-0216386] the inhibition at 10 µM [1] was 7.7%.

Cc1ncc(NC(=O)c2cccc(C(F)(F)F)c2)cc1-c1cnc(OC2CCOCC2)c(N2CCOCC2)c1 [PCM-0216049] gave an inhibition at 10 µM [1] of -13.1%.

COc1ccc(/C=C/c2cc(O)cc(O[C@@H]3O[C@H](CO)[C@@H](O)[C@H](O)[C@H]3O)c2)cc1O [PCM-0214544] gave an inhibition at 10 µM [1] of 6.9%.

For O=c1cc(-c2ccc(O[C@@H]3O[C@H](CO)[C@@H](O)[C@H](O)[C@H]3O)cc2)oc2c([C@@H]3O[C@H](CO)[C@@H](O)[C@H](O)[C@H]3O)c(O)cc(O)c12 [PCM-0216358], the inhibition at 10 µM [1] was -3.9%.

Work on CC(N)=NCc1cccc(CN)c1 [PCM-0215766] yielded an inhibition at 10 µM [1] of 13.1%.

Compound Cc1c(C(=O)C=Cc2ccccc2)[n+](=O)c2ccccc2n1[O-] [PCM-0216007] has an inhibition at 10 µM [1] of -6.9%.

Cc1cc(C)c(-c2csc(NC(=O)c3ccccc3)n2)c(C)c1 [PCM-0095756] showed an inhibition at 10 µM [1] of 41.7%.

In the case of c1ccc2c(c1)[I+]c1ccccc1-2 [PCM-0215888], the inhibition at 10 µM [1] is reported as -0.7%.

CCOCC(O)COc1ccc(NC(=O)CC[S+](C)C)cc1 (centres unmarked) [PCM-0095295] was tested, and the inhibition at 10 µM [1] was 0%.

CC[C@H]1OC(=O)[C@H](C)[C@@H](O[C@H]2C[C@@](C)(OC)[C@@H](O)[C@H](C)O2)[C@H](C)[C@@H](O[C@@H]2O[C@H](C)C[C@H](N(C)C)[C@H]2O)[C@](C)(O)C[C@@H](C)C(=O)[C@H](C)[C@H]2OC(=O)O[C@@]21C [PCM-0215364] gave an inhibition at 10 µM [1] of -20.8%.

For O=C1C(=O)c2ccccc2C(O)=C1C1CCC(c2ccc(Cl)cc2)CC1 (centres unmarked) [PCM-0214729], the inhibition at 10 µM [1] was 16.3%.

Compound O=c1[nH]c(=S)[nH]c2nc(-c3ccccc3)c(-c3ccccc3)nc12 [PCM-0215641] has an inhibition at 10 µM [1] of 17%.

CCN(CC)C(=S)SSC(=S)N(CC)CC [PCM-0064895] showed an inhibition at 10 µM [1] of -5.5%.

CC(C)(Sc1ccncc1-c1ccc(C#N)c2ccccc12)C(=O)O [PCM-0216646] was tested, and the inhibition at 10 µM [1] was -27.8%.

Compound CC[C@H](C)C(=O)O[C@H]1C[C@H](O)C=C2C=C[C@H](C)[C@H](CC[C@@H](O)C[C@@H](O)CC(=O)O)[C@H]21 [PCM-0214717] has an inhibition at 10 µM [1] of -3.1%.

Compound OC[C@H]1OC(O)[C@H](O)[C@@H](O)[C@@H]1O (some centres unmarked) [PCM-0095297] has an inhibition at 10 µM [1] of -10.1%.

Cc1cc2c(F)c(Oc3ncnn4cc(OC[C@@H](C)OC(=O)[C@H](C)N)c(C)c34)ccc2[nH]1 [PCM-0094946] showed an inhibition at 10 µM [1] of -44.8%.

In the case of CN1CCN(C(=O)/C=C/c2ccc([N+](=O)[O-])o2)CC1 [PCM-0215590], the inhibition at 10 µM [1] is reported as 4.6%.

Compound Cc1cccc(C)c1N(CC(=O)Nc1ccc(-c2ncon2)cc1)C(=O)C1CCS(=O)(=O)CC1 [PCM-0216196] has an inhibition at 10 µM [1] of 2.3%.

In the case of CC(=O)NC[C@H]1CN(c2ccc(N3CCOCC3)c(F)c2)C(=O)O1 [PCM-0064450], the inhibition at 10 µM [1] is reported as -23.3%.

In the case of O=[N+]([O-])c1cn2c(n1)OC[C@@H](OCc1ccc(OC(F)(F)F)cc1)C2 [PCM-0094995], the inhibition at 10 µM [1] is reported as 3.1%.

Work on C[C@H]1O[C@@H](O[C@H]2CC[C@@]3(C)[C@@H](CC[C@]4(C)[C@@H]3C=CC3=C5CC(C)(C)CC[C@]5(CO)[C@@H](O)C[C@]34C)[C@]2(C)CO)[C@H](O[C@@H]2O[C@H](CO)[C@@H](O)[C@H](O)[C@H]2O)[C@@H](O[C@@H]2O[C@H](CO)[C@@H](O)[C@H](O)[C@H]2O)[C@H]1O [PCM-0216370] yielded an inhibition at 10 µM [1] of 25.5%.

Compound Cc1c(NC(=O)OC[C@@H]2COCCN2)cn2ncnc(Nc3ccc4c(cnn4Cc4cccc(F)c4)c3)c12 [PCM-0094984] has an inhibition at 10 µM [1] of 32.4%.

With COC(=O)Nc1nc2ccc([S+]([O-])c3ccccc3)cc2[nH]1 (centres unmarked) [PCM-0086213] the inhibition at 10 µM [1] was 17.9%.

CC[N+](CC)(CC)CCOc1cccc(OCC[N+](CC)(CC)CC)c1OCC[N+](CC)(CC)CC [PCM-0065294] showed an inhibition at 10 µM [1] of 9.3%.

In the case of CCc1ccc(Cc2ccc3c(c2)[C@]2(OC3)O[C@H](CO)[C@@H](O)[C@H](O)[C@H]2O)cc1 [PCM-0215855], the inhibition at 10 µM [1] is reported as 5.4%.

Compound CC1(C)CC[C@]2(NC(=O)C(C)(F)F)CC[C@]3(C)[C@H](C(=O)C=C4[C@@]5(C)C=C(C#N)C(=O)C(C)(C)[C@@H]5CC[C@]43C)[C@@H]2C1 [PCM-0215505] has an inhibition at 10 µM [1] of -10%.

In the case of COc1ccc(N2C(=O)/C(=C\c3ccc([N+](=O)[O-])s3)SC2=S)cc1 [PCM-0215671], the inhibition at 10 µM [1] is reported as 22.4%.

For CCc1c2c(nc3ccc(O)cc13)-c1cc3c(c(=O)n1C2)COC(=O)[C@]3(O)CC [PCM-0091516], the inhibition at 10 µM [1] was -28.8%.

With CN(C)C(=O)c1ccc(S(=O)(=O)c2ccc(NC(=O)[C@@](C)(O)C(F)(F)F)c(Cl)c2)cc1 [PCM-0215295] the inhibition at 10 µM [1] was 3.1%.

Compound Nc1ncnc2c1ncn2[C@H]1C[C@H](O)[C@@H](CO)O1 [PCM-0101923] has an inhibition at 10 µM [1] of 15.4%.

For COc1nc(C)nc(Cl)c1NC1=NCCN1 [PCM-0065456], the inhibition at 10 µM [1] was 0.8%.

C/C(=N\NC(=O)c1cccc(S(=O)(=O)N2CCOCC2)c1)c1cc(Cl)ccc1O [PCM-0215399] gave an inhibition at 10 µM [1] of 25.5%.

C=CC(=O)Nc1ccc2ncnc(Nc3ccc(OCc4cccc(F)c4)c(Cl)c3)c2c1 [PCM-0095229] showed an inhibition at 10 µM [1] of 110%.

In the case of CN1[C@@H]2CC(O)C[C@H]1[C@@H]1O[C@@H]12 (some centres unmarked) [PCM-0095322], the inhibition at 10 µM [1] is reported as -2.3%.

For C[C@@](Cc1ccc(O)c(O)c1)(NN)C(=O)O [PCM-0065259], the inhibition at 10 µM [1] was -14.8%.

O=C(O)[C@H]1O[C@@H](Oc2cc3oc(-c4ccc(O)cc4)cc(=O)c3c(O)c2O)[C@H](O)[C@@H](O)[C@@H]1O [PCM-0215170] showed an inhibition at 10 µM (read-out: BTK inhibition (%)) of 0%.

N[C@@H](CSCCCO)C(=O)O [PCM-0095309] gave an inhibition at 10 µM [1] of 17.9%.

For COc1cc([C@@H]2c3cc4c(cc3[C@@H](O[C@@H]3O[C@@H]5CO[C@@H](C)O[C@H]5[C@H](O)[C@H]3O)[C@H]3COC(=O)[C@H]23)OCO4)cc(OC)c1O [PCM-0086140], the inhibition at 10 µM [1] was -2.8%.

O=C(CCc1ccc(O)cc1)c1c(O)cc(O[C@@H]2O[C@H](CO)[C@@H](O)[C@H](O)[C@H]2O)cc1O [PCM-0216363] gave an inhibition at 10 µM [1] of 17.8%.

With CCCCCOC(=O)Nc1nc(=O)n([C@@H]2O[C@H](C)[C@@H](O)[C@H]2O)cc1F [PCM-0094987] the inhibition at 10 µM [1] was -11.7%.

Compound O=c1c(N=Nc2nccs2)c(-c2ccccc2)[nH]n1-c1nc(-c2ccccc2)cs1 [PCM-0215938] has an inhibition at 10 µM [1] of 98.1%.

Nc1nc2c(ncn2[C@@H]2O[C@H](CO)[C@@H](O)[C@H]2O)c(=O)[nH]1 [PCM-0094848] was tested, and the inhibition at 10 µM [1] was 0%.

CC(C)=CCC[C@](C)(O[C@@H]1O[C@H](CO)[C@@H](O)[C@H](O)[C@H]1O)[C@H]1CC[C@]2(C)[C@@H]1[C@H](O)C[C@@H]1[C@@]3(C)CC[C@H](O)C(C)(C)[C@@H]3[C@@H](O[C@@H]3O[C@H](CO)[C@@H](O)[C@H](O)[C@H]3O[C@@H]3OC[C@@H](O)[C@H](O)[C@H]3O)C[C@]12C [PCM-0215161] gave an inhibition at 10 µM [1] of 5.5%.

In the case of CC[C@]12C=CCN3CC[C@@]4(c5ccc(OC)cc5N(C)[C@H]4[C@@](O)(C(=O)OC)[C@@H]1OC(C)=O)[C@@H]32 [PCM-0215165], the inhibition at 10 µM [1] is reported as 6.2%.

Cc1ncc(CCCN(C)C)cc1Nc1ncc2c(n1)-c1ccc(C(F)(F)F)cc1NC(=S)C2 [PCM-0214732] gave an inhibition at 10 µM [1] of 24.1%.

Work on O=c1[nH]cnc2nc[nH]c12 [PCM-0091022] yielded an inhibition at 10 µM [1] of -22.1%.

Compound O=c1cc(N2CCOCC2)oc2c(-c3cccc4c3sc3ccccc34)cccc12 [PCM-0095522] has an inhibition at 10 µM [1] of -13.6%.

With O=c1[nH]c(=O)n([C@H]2C[C@H](O)[C@@H](CO)O2)cc1C(F)(F)F [PCM-0086194] the inhibition at 10 µM [1] was 2.3%.

With C[C@H](Nc1ncnc2nc[nH]c12)c1cc2ccc(F)cc2nc1-c1ccccn1 [PCM-0215539] the inhibition at 10 µM [1] was 3.4%.

Cc1cc(Nc2ncnc3ccc(NC4=NC(C)(C)CO4)cc23)ccc1Oc1ccn2ncnc2c1 [PCM-0215734] showed an inhibition at 10 µM [1] of 71.7%.

COc1cccc(-n2c(=O)[nH]c3cc(Cl)n(-c4ccc(-c5cccc(OC)c5O)cc4)c3c2=O)c1 [PCM-0215555] gave an inhibition at 10 µM [1] of 99.3%.

Work on Cn1cc(C2=C(c3cn(CCCSC(=N)N)c4ccccc34)C(=O)NC2=O)c2ccccc21 [PCM-0215237] yielded an inhibition at 10 µM [1] of 117%.
